The test system of data set [1] is rat model of hyperuricemia. The data set is described as follows: Reducing uric acid in the rat model of hyperuricemia (Oteracil potassium), 30 d intragastric administration. It is filed as in vivo, SD Rat. Particulars: hyperuricemia model rats, X ± S.
The test system of data set [2] is rat model of hyperuricemia. The description is as above. It is filed as in vivo, SD Rat. Particulars: for UA Reduction: day 30, calculated in comparison with Model control group. The text has this:
Examine the effect of the Chinese herbal composition of the present invention for reducing uric acid in the rat model of hyperuricemia. Animals were assigned randomly into: Blank control group, Sample control group, Model control group, Test group, and Positive control group. Each group consisted of 10 animals. […] They were randomly assigned into 5 groups, each group consisting of 10 animals, the body weight distribution of each group of rats is similar. […] Blank control group was administrated with 17 ml/kg of distilled water intragastrically every afternoon, Sample control group was administrated with 17 ml/kg of test sample intragastrically every afternoon, Model control group was administrated with distilled water intragastrically in the afternoon, Positive control group was administrated with allopurinol intragastrically in the afternoon, and Test group was administrated with 17 ml/kg of test sample intragastrically in the afternoon. Additionally, for Model control group, Positive control group and Test group, each group was administrated with Oteracil potassium intragastrically every morning. The administration was conducted daily for 30 days. Prior to experiments, the rats were fastened for 12 h (but water was provided) and then about 1 ml of blood were taken from orbital veniplex with glass capillary tube. Sera were separated for measuring the pre-testing level of uric acid. On day 30, blood were taken in the same manner and sera were separated for measuring the serum levels of uric acid, creatinine, and urea nitrogen. Modeling principle: Rats were intragastrically administrated with Oteracil potassium, a chemical inhibitor of uricase, to inhibit the activity of uricase in the body of rats, rendering uric acid in the body of rats unable to breakdown, causing the accumulation of uric acid produced in the serum, so as to produce a rat model of hyperuricemia. Model control group: 17 ml/kg*d of distilled water was administrated intragastrically, once daily for 30 days; Test sample prevention group: 17 ml/kg*d of test sample was administrated intragastrically, once daily for 30 days; Positive control group: 17 ml/kg*d of positive control allopurinolis administrated intragastrically, once daily for 30 days. Observation of Body weight: The growing condition of animals were observed by weighing prior to administration and on Day 30 of administration. Blood were taken prior to administration and on Day 30 of administration to measure uric acid, creatinine, urea nitrogen, to calculate the changing rate of uric acid level in serum. The changing rate of uric acid in serum=(uric acid value in serum after experiment-uric acid value in serum prior to experiment)/uric acid value in serum prior to […]100% ANOVA (analysis of variance) was used. Firstly, homogeneous variance test was carried out, and F values were calculated.

Where [3] appears, read: hyperuricemia model rats, intragastric once daily, day 30, X ± S.

Marks after values point to notes of the source that are not given here.

Compound `Oc1ncnc2[nH]ncc12` [allopurinol] yielded a 10 d weight in data set [1] (body weight after 10 days) of 185.7 ± 15.9 g. Further, the 20 d weight in data set [1] (body weight after 20 days) was 224.2 ± 21.8 g. The compound further displayed a 30 d weight in data set [2] (hyperuricemia model rats, body weight after 30 days, X ± S) of 254.4 ± 23.1 g. Further, the “UA Reduction” value in data set [2] (hyperuricemia model rats) is listed as 53.4%. For the same compound, in data set [2] (hyperuricemia model rats, listed as Positive control), the “UA Reduction” value is “↓53.4%”. Also, in data set [2] (setting [3]), the BUN level in the sera of rats upon 30 d administration came to 5.53 ± 0.79 mM and the “UA level in the sera of rats upon 30 d administration” value is recorded as 63.20 ± 17.19** μmol/L. The “Blood/serum UA level change in words” value in data set [2] (in comparison with Model control group, 30 d oral administration) is “significant reduction”. The “General status observation (appearance, activities, excrement characters)” value in data set [2] (in comparison with Model control group, observed daily) is listed as “no significant difference”.

Values taken from patent US11925669B2, “Chinese herbal medicine composition having a function of reducing uric acid” (Infinitus (China) Company Ltd., priority 2013, dated 2024).
